Laboratory results from patent US10143200B2, “Synergistic compositions for the protection of agrarian crops and the use thereof” (STICHTING I-F PRODUCT COLLABORATION, priority 2012, dated 2018).

What was measured:
Botrytis cinerea (BC) = test: In vitro growth inhibition of spore suspensions (optical density 405 nm, 43 h); format: cell-based; settings: concentration giving 50% growth inhibition; Botrytis cinerea spores, 43 hours at room temperature, average of three replicates
[1] = system: Stagonospora nodorum (SN); test: as above; format: cell-based; settings: concentration giving 50% growth inhibition; Stagonospora nodorum spores, 43 hours at room temperature, average of three replicates
Puccinia recondita = test: Fungicidal activity in preventive application (5 days) on wheat; format: in vivo, Puccinia recondita on wheat (Salgemma variety); settings: leaf spray 5 days before inoculation, reduction of affected leaf area vs untreated, scale 0-100
Description: Leaves of wheat plants of the […] variety, grown in pots in a conditioned environment kept at 20° C. and 70% of relative humidity (R.H.), were treated by spraying both sides of the leaves with the compounds and the compositions under testing, dispersed in hydroacetonic solutions at 20% by volume of acetone. After remaining 5 days in a conditioned environment, the plants were sprayed on both sides of the leaves with an aqueous suspension of conidia of Puccinia recondita (2 mg of inoculum per 1 ml of solution for infection). After being sprayed, the plants were kept in a humidity-saturated environment at a temperature ranging from 18 to 24° C. for the incubation period of the fungus (1 day). After this period, the plants were put in a greenhouse with R.H. of 70% and at a temperature of 18-24° C. for 14 days. At the end of this period the external symptoms of the pathogen appeared and it was therefore possible to proceed with the visual assessment of the intensity of the infection. The fungicidal activity was expressed as percentage of reduction of affected leaves areas with respect to those of untreated plants used as control: the scale comprised, as extremes, the value 100 (full activity; healthy plant) and the value 0 (no activity; completely infected plant).

wheat plants = test: Phytotoxicity (percentage of leaf necrosis) on wheat plants; format: in vivo, wheat (Salgemma variety); settings: scale 0 (none) to 100
Description: Leaves of wheat plants of the Salgemma variety, grown in pots in a conditioned environment kept at 20° C. and 70% of relative humidity (R.H.), were treated by spraying both sides of the leaves with the compounds and the compositions under testing, dispersed in hydroacetonic solutions at 20% by volume of acetone.
At the same time, the phytotoxicity (percentage of leaf necrosis) induced on the wheat plants by the application of the products and compositions was evaluated: in this case, the scale ranged from 0 (no phytotoxicity) to 100 (completely necrotized plant).

Compound | EC50 against Botrytis cinerea (Botrytis cinerea (BC)) | SN EC50 [1] | % Activity (Puccinia recondita; Rate 62.5 ppm) | % Activity (Puccinia recondita; Rate 125 ppm) | % Phytotoxicity (wheat plants; Rate 62.5 ppm) | % Phytotoxicity (wheat plants; Rate 125 ppm)
CC1CC(C)(C)c2c(F)ccc(NC(=O)c3cn(C)nc3C(F)F)c21 (racemic) [Racemic (I), 3-difluoromethyl-N-(7-fluoro-1,1,3-trimethyl-4-indanyl)-1-methyl-4-pyrazolecarboxamide] | 0.32 ppm | 1.1 ppm | 96% | 98% | 0% | 0%
CC1CC(C)(C)c2c(F)ccc(NC(=O)c3cn(C)nc3C(F)F)c21 (single isomer, unassigned; (+)) [(+)-(I), 3-difluoromethyl-N-(7-fluoro-1,1,3-trimethyl-4-indanyl)-1-methyl-4-pyrazolecarboxamide] | n.i. | 72 ppm | 20% | 45% | 0% | 0%
CC1CC(C)(C)c2c(F)ccc(NC(=O)c3cn(C)nc3C(F)F)c21 (single isomer, unassigned; (-)) [(−)-(I), 3-difluoromethyl-N-(7-fluoro-1,1,3-trimethyl-4-indanyl)-1-methyl-4-pyrazolecarboxamide] | 0.17 ppm | 0.42 ppm | 96% | 100% | 0% | 0%
